For 51 compounds, IC50 results are on record in patent US4803266A, “3-Oxoalkylidene-2-azetidinone derivatives” (Taisho Pharmaceutical Co., Ltd., priority 1986, dated 1989).

Molecules are shown by their SMILES. Bounds are passed on as bounds.

Assay [1] has as its system blood platelet aggregation. Description: Blood platelet aggregation inhibition in vitro in rabbit PRP, ADP induced. Format: cell-based, male, New Zealand strain house rabbit. Particulars: Oryctolagus cuniculus, ADP final concentration 5 μM, 37° C., 3 minutes preincubation, 50% inhibition of maximum aggregation rate. How it is done: (§1) Citrated blood (one volume of 3.2% sodium citrate; 9 volumes of blood) was collected from carotid artery of male, New Zealand strain house rabbit, centrifuged at 150 g for 15 minutes to give platelet rich plasma (PRP) as a supernatant, and the remaining blood was centrifuged at 1500 g for 10 minutes to give platelet poor plasma (PPP) as a supernatant. The platelet count of PRP was adjusted to 50-60×10^4 /μl by dilution of PPP. Blood platelet aggregation was carried out according to the method of Born [Born, G. V. R., Nature, 194, 927 (1962)]. Namely, 25 μl of the test drug, (all the test drugs were dissolved in dimethyl sulfoxide and adjusted to the desired concentration with physiological saline solution), was added to 250 μl of PRP, and the mixture was incubated at 37° C. for 3 minutes. 25 μl of the aggregation inducing substance [adenosine diphosphate (ADP); final concentration 5 μM or collagen: final concentration 5 μg/ml] was added, the mixture was measured for 5 minutes by blood platelet aggregation ability measurement apparatus (Aggricoda TM-PA-3210, Kyoto Dai-ichi Kagaku) to obtain the maximum aggregation rate, and there was calculated the concentration of the test drug (ICP50) which brings about 50% inhibition to the maximum aggregation rate obtained by adding the aggregation inducing substance to PRP containing the solvent only.
(§2) The compound numbers in Table 1 correspond to those in the Examples described below.

The subject of assay [2] is blood platelet aggregation. Description: Blood platelet aggregation inhibition in vitro in rabbit PRP, collagen induced. It is filed as cell-based, male, New Zealand strain house rabbit. To be noted: Oryctolagus cuniculus, collagen final concentration 5 μg/ml, 37° C., 3 minutes preincubation, 50% inhibition of maximum aggregation rate. How it is done: as §1, §2

In the case of `Cc1ccccc1N1C(=O)/C(=C/C(=O)c2ccc([N+](=O)[O-])cc2)C1c1ccc(Br)cc1` (stereo not shown) [Compound 86], the half-maximal inhibitory concentration (IC50) in assay [1] amounted to 6.2 µM; in assay [2], 5.3 µM.
The like results for `O=C(/C=C1/C(=O)N(c2ccccc2F)C1c1ccccc1)c1ccc(F)cc1` (stereo not shown) [Compound 33] were, in that order, 11.9 µM and 12.5 µM.
The like results for `O=C(/C=C1/C(=O)N(c2ccc(F)cc2)C1c1ccccc1)c1ccccc1` (stereo not shown) [Compound 29] were, in that order, 9 µM and 8.1 µM.
Regarding `COc1ccc(C(=O)/C=C2/C(=O)N(c3ccccc3)C2c2ccccc2)cc1` (stereo not shown) [Compound 6], the figures for the IC50 in assay [1] and in assay [2] were 24 µM and 18 µM, respectively.
In the same order, the values of `Cc1ccccc1N1C(=O)/C(=C/C(=O)c2ccc(F)cc2)C1c1ccc(Br)cc1` (stereo not shown) [Compound 85] are 17.7 µM and 14.4 µM.
In the same order, the values of `O=C(/C=C1/C(=O)N(c2cccc(C(F)(F)F)c2)C1c1ccccc1)c1ccc(F)cc1` (stereo not shown) [Compound 44] are 10.3 µM and 7.3 µM.
In the same order, the values of `O=C(/C=C1/C(=O)N(c2cccc(C(F)(F)F)c2)C1c1ccccc1)c1ccccc1` (stereo not shown) [Compound 43] are 14 µM and 7.7 µM.
Turning to `O=C(/C=C1/C(=O)N(c2ccccc2)C1c1ccccc1)c1ccc(F)cc1` (stereo not shown) [Compound 8], the IC50 in assay [1] was found to be 9.2 µM; in assay [2], 13.6 µM.
In the same order, the values of `O=C(/C=C1/C(=O)N(c2cc(Cl)cc(Cl)c2)C1c1ccccc1)c1ccc([N+](=O)[O-])cc1` (stereo not shown) [Compound 38] are 9 µM and 4.6 µM.
With `O=C(/C=C1/C(=O)N(Cc2ccc(Cl)cc2)C1c1ccccc1)c1ccc([N+](=O)[O-])cc1` (stereo not shown) [Compound 98], the IC50 in assay [1] is 11.2 µM; in assay [2], 8.8 µM.
On to `CCc1ccc(C2/C(=C\C(=O)c3ccc([N+](=O)[O-])cc3)C(=O)N2c2ccccc2C)cc1` (stereo not shown) [Compound 68], for which the IC50 is 13.6 µM in assay [1] and 7.5 µM in assay [2].
In the same order, the values of `O=C(/C=C1/C(=O)N(c2ccccc2)C1c1ccccc1F)c1ccc(F)cc1` (stereo not shown) [Compound 80] are 7.4 µM and 10.9 µM.
In the same order, the values of `COc1ccccc1CN1C(=O)/C(=C/C(=O)c2ccc([N+](=O)[O-])cc2)C1c1ccccc1` (stereo not shown) [Compound 94] are 8 µM and 6.9 µM.
In the same order, the values of `CC(=O)/C=C1/C(=O)N(c2ccccc2)C1c1ccccc1` (stereo not shown) [Compound 1, (E)-3-(2-oxopropylidene)-1,4-diphenyl-2-azetidinone] are 33 µM and 14 µM.
As for `O=C(/C=C1/C(=O)N(Cc2ccccc2)C1c1ccccc1)c1ccc([N+](=O)[O-])cc1` (stereo not shown) [Compound 53], it took 4.9 µM to reach half-maximal inhibition in assay [1] (IC50).
Take `Cc1ccc(C(=O)/C=C2/C(=O)N(c3ccccc3)C2c2ccccc2)cc1` (stereo not shown) [Compound 5]: the IC50 in assay [1] worked out at 24 µM; in assay [2] it was 23.5 µM.
In the same order, the values of `CCC(=O)/C=C1/C(=O)N(c2ccccc2)C1c1ccccc1` (stereo not shown) [Compound 2] are 28 µM and 32 µM.
In the same order, the values of `Cc1ccccc1N1C(=O)/C(=C/C(=O)c2ccc(F)cc2)C1c1ccccc1` (stereo not shown) [Compound 17] are 7.7 µM and 5 µM.
The like results for `O=C(/C=C1/C(=O)N(c2ccccc2)C1c1ccccc1)c1ccc(-c2ccccc2)cc1` (stereo not shown) [Compound 11] were, in that order, greater than 30 µM and 22 µM.
As to `COc1ccc(Cc2nccc3cc(OC)c(OC)cc23)cc1OC` [papaverin, reference compound], the IC50 in assay [1] and in assay [2] was greater than 100 µM throughout.
As to `O=C(/C=C1/C(=O)N(c2ccccc2)C1c1ccc(F)cc1)c1ccc([N+](=O)[O-])cc1` (stereo not shown) [Compound 77], the figures for the IC50 in assay [1] and in assay [2] were 4.3 µM and 2.9 µM, respectively.
In the same order, the values of `O=C(/C=C1/C(=O)N(c2ccccc2)C1c1ccccc1)c1ccc([N+](=O)[O-])cc1` (stereo not shown) [Compound 12] are 5.6 µM and 4.7 µM.
The like results for `O=C(/C=C1/C(=O)N(Cc2cccc(Cl)c2)C1c1ccccc1)c1ccc([N+](=O)[O-])cc1` (stereo not shown) [Compound 97] were, in that order, 16 µM and 3.2 µM.
With `O=C(/C=C1/C(=O)N(c2cccc(C(F)(F)F)c2)C1c1ccccc1)c1ccc([N+](=O)[O-])cc1` (stereo not shown) [Compound 45], the IC50 was 4.4 µM in assay [1] and 5.2 µM in assay [2].
The like results for `O=C(/C=C1/C(=O)N(Cc2ccccc2F)C1c1ccccc1)c1ccc([N+](=O)[O-])cc1` (stereo not shown) [Compound 96] were, in that order, 3.9 µM and 3.7 µM.
In the same order, the values of `O=C(/C=C1/C(=O)N(c2ccccc2)C1c1ccc(O)cc1)c1ccc([N+](=O)[O-])cc1` (stereo not shown) [Compound 75] are 3.8 µM and 5.4 µM.
Take `O=C(/C=C1/C(=O)N(c2ccccc2)C1c1ccccc1)c1ccc(Cl)cc1` (stereo not shown) [Compound 9]: the IC50 in assay [1] came to 15 µM; in assay [2] it was 12 µM.
The like results for `CC(=O)/C=C1/C(=O)N(c2cc(Cl)ccc2C)C1c1ccccc1` (stereo not shown) [Compound 25] were, in that order, 11.1 µM and 6.6 µM.
In the same order, the values of `O=C(/C=C1/C(=O)N(Cc2ccc(Cl)cc2Cl)C1c1ccccc1)c1ccc([N+](=O)[O-])cc1` (stereo not shown) [Compound 103] are 18.5 µM and 6.7 µM.
The like results for `CCOC(=O)CC(=O)/C=C1/C(=O)N(c2ccccc2)C1c1ccccc1` (stereo not shown) [Compound 15] were, in that order, 21.5 µM and 16.6 µM.
Take `Cc1ccccc1N1C(=O)/C(=C/C(=O)c2ccc(F)cc2)C1c1ccc(F)cc1` (stereo not shown) [Compound 78]: the IC50 in assay [1] stood at 6.2 µM; in assay [2] it was 8.3 µM.
In the same order, the values of `O=C(/C=C1/C(=O)N(c2ccccc2)C1c1ccccc1)c1ccc(Br)cc1` (stereo not shown) [Compound 10] are 36 µM and 26 µM.
In the same order, the values of `COc1ccc(C(=O)/C=C2/C(=O)N(c3ccccc3)C2c2ccccc2)c(OC)c1` (stereo not shown) [Compound 7] are 12 µM and 23 µM.
In the same order, the values of `COc1ccc(C(=O)/C=C2/C(=O)N(c3ccc(Br)cc3)C2c2ccccc2)cc1` (stereo not shown) [Compound 39] are greater than 30 µM and greater than 30 µM.
`O=C(/C=C1/C(=O)N(Cc2ccccc2Cl)C1c1ccccc1)c1ccc(F)cc1` (stereo not shown) [Compound 55]: the values for the IC50 in assay [1] and in assay [2] were 10.5 µM and 8.3 µM, respectively.
In the same order, the values of `O=C(/C=C1/C(=O)N(Cc2ccccc2C(F)(F)F)C1c1ccccc1)c1ccc([N+](=O)[O-])cc1` (stereo not shown) [Compound 95] are 15.4 µM and 2.5 µM.
Regarding `O=C(/C=C1/C(=O)N(Cc2ccccc2)C1c1ccccc1)c1ccc(F)cc1` (stereo not shown) [Compound 52], half-maximal inhibition in assay [1] (IC50) required 7.9 µM.
With `O=C(/C=C1/C(=O)N(c2ccccc2)C1c1ccc(F)cc1)c1ccc(F)cc1` (stereo not shown) [Compound 76], the values for the IC50 in assay [1] and in assay [2] were 14.3 µM and 10.5 µM, respectively.
The like results for `O=C(/C=C1/C(=O)N(c2ccc(Br)cc2)C1c1ccccc1)c1ccc([N+](=O)[O-])cc1` (stereo not shown) [Compound 41] were, in that order, 4.2 µM and 5.1 µM.
Take `O=C(/C=C1/C(=O)N(c2ccccc2)C1c1ccccc1F)c1ccc([N+](=O)[O-])cc1` (stereo not shown) [Compound 81]: the IC50 in assay [1] stood at 5.5 µM; in assay [2], 7 µM.
The like results for `O=C(/C=C1/C(=O)N(c2ccc(F)cc2)C1c1ccccc1)c1ccc([N+](=O)[O-])cc1` (stereo not shown) [Compound 32] were, in that order, 3.5 µM and 3.8 µM.
Consider `CCc1ccc(C2/C(=C\C(=O)c3ccc(F)cc3)C(=O)N2c2ccccc2C)cc1` (stereo not shown) [Compound 67], for which the IC50 in assay [1] is 27.7 µM; in assay [2] it was 11 µM.
The like results for `O=C(/C=C1/C(=O)N(c2cc(Cl)cc(Cl)c2)C1c1ccccc1)c1ccc(F)cc1` (stereo not shown) [Compound 37] were, in that order, 21.2 µM and 17.8 µM.
The like results for `O=C(/C=C1/C(=O)N(c2ccccc2F)C1c1ccccc1)c1ccc([N+](=O)[O-])cc1` (stereo not shown) [Compound 34] were, in that order, 8.2 µM and 6.6 µM.
The like results for `O=C(/C=C1/C(=O)N(c2ccccc2)C1c1ccccc1)c1ccccc1` (stereo not shown) [Compound 4] were, in that order, 13 µM and 16 µM.
`Cc1cc(Cl)ccc1N1C(=O)/C(=C/C(=O)c2ccc([N+](=O)[O-])cc2)C1c1ccccc1` (stereo not shown) [Compound 24] showed an IC50 in assay [1] of 6.4 µM.
Consider `CC(=O)/C=C1/C(=O)N(Cc2ccccc2Cl)C1c1ccccc1` (stereo not shown) [Compound 54], for which the IC50 was determined as 11.2 µM in assay [1] and 15.5 µM in assay [2].
The like results for `COc1ccc(CN2C(=O)/C(=C/C(=O)c3ccc([N+](=O)[O-])cc3)C2c2ccccc2)cc1` (stereo not shown) [Compound 92] were, in that order, 7.3 µM and 6.5 µM.
In the same order, the values of `O=C(/C=C1/C(=O)N(Cc2ccccc2Cl)C1c1ccccc1)c1ccc([N+](=O)[O-])cc1` (stereo not shown) [Compound 56] are 2.9 µM and 6.5 µM.
In assay [1], `Cc1ccc(C(=O)/C=C2/C(=O)N(c3ccc(Cl)cc3C)C2c2ccccc2)cc1` (stereo not shown) [Compound 21] came in with an IC50 of 30.9 µM.
Same read-out and setting: the same measure for `COc1ccc(C(=O)/C=C2/C(=O)N(c3ccc(Cl)cc3C)C2c2ccccc2)cc1` (stereo not shown) [Compound 22]: 41.3 µM.

For orientation: IC50 means the concentration that gives 50% inhibition. High values mean a need for much substance, low ones inhibition by little substance.
